Laboratory results: ChEMBL document CHEMBL1157802, “5-Functionalized indazoles as glucocorticoid receptor agonists” (Bioorg Med Chem Lett, 2010)
Values belong to the compound of their own block, whether it stands above or below them.

Assays:
Glucocorticoid receptor = molecular target: T1, Glucocorticoid receptor (Homo sapiens, UniProt P04150)
T1 sequence (P04150 whole entry): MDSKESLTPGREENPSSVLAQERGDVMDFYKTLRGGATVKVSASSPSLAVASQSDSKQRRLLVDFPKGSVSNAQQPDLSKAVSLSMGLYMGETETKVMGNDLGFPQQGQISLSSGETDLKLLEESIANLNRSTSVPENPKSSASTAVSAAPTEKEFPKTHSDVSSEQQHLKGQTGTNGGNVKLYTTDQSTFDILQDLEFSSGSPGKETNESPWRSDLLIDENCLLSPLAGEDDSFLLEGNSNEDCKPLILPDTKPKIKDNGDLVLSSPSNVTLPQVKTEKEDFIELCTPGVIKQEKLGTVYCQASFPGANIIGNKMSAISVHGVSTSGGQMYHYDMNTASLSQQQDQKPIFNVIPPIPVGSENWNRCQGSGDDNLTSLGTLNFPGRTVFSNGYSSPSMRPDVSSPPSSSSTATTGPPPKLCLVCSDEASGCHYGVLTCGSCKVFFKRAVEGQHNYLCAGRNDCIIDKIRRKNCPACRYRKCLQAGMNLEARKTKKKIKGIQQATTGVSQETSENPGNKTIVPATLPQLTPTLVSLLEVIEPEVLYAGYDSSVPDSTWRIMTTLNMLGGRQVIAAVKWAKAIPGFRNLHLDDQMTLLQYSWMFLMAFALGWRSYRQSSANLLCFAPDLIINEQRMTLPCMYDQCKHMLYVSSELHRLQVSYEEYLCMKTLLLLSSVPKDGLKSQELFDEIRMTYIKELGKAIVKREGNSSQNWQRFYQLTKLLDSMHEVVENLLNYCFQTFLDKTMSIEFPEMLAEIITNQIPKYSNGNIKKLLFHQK
Description: Binding affinity to human glucocorticoid receptor by fluorescence polarization competitive binding assay

[1] = molecular target: T2, Alpha-1B adrenergic receptor (Homo sapiens) (UniProt P35368); assay: Inhibition of adrenergic Alpha-1B receptor at 1 uM
T2 sequence (whole entry): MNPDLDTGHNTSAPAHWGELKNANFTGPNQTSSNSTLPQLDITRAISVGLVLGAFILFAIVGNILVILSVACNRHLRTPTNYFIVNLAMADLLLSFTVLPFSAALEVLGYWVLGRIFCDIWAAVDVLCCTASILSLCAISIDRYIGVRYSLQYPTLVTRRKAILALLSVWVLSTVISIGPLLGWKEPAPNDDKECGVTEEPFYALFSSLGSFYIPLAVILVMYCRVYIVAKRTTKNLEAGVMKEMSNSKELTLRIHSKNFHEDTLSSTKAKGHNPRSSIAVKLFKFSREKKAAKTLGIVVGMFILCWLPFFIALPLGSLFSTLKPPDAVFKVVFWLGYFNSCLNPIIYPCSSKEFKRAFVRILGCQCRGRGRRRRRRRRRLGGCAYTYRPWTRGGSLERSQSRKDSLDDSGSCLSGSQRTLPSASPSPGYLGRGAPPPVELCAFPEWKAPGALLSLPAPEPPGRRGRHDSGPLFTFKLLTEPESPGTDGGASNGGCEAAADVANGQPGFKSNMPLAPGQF

[2] = molecular target: Sodium-dependent noradrenaline transporter (Homo sapiens) (UniProt P23975); assay: Inhibition of norepinephrine transporter at 1 uM
[3] = molecular target: Adenosine receptor A2a (Homo sapiens) (UniProt P29274); assay: Inhibition of adenosine A2A receptor at 1 uM
[4] = Inhibition of NMDA receptor at 1 uM
[5] = molecular target: T3, Alpha-1A adrenergic receptor (Homo sapiens) (UniProt P35348); assay: Inhibition of adrenergic alpha1A receptor at 1 uM
T3 sequence (whole entry): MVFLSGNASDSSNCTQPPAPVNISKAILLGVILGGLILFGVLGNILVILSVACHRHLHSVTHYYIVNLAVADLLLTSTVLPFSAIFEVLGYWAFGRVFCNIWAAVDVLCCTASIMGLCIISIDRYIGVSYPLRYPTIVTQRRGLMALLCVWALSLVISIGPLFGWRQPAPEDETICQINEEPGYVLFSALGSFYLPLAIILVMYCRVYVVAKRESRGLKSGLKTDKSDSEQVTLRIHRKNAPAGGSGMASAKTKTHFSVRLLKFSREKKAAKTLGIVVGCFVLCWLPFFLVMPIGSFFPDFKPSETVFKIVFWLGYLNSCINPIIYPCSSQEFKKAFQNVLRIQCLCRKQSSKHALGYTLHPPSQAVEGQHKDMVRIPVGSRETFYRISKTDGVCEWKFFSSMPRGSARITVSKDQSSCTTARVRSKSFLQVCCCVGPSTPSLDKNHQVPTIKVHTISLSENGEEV

[6] = Inhibition of sigma 2 receptor at 1 uM
[7] = Inhibition of ATP-sensitive potassium channel at 1 uM
[8] = Inhibition of central imidazoline I2 receptor at 1 uM
[9] = molecular target: T4, Alpha-2A adrenergic receptor (Homo sapiens) (UniProt P08913); assay: Inhibition of adrenergic alpha2A receptor at 1 uM
T4 sequence (whole entry): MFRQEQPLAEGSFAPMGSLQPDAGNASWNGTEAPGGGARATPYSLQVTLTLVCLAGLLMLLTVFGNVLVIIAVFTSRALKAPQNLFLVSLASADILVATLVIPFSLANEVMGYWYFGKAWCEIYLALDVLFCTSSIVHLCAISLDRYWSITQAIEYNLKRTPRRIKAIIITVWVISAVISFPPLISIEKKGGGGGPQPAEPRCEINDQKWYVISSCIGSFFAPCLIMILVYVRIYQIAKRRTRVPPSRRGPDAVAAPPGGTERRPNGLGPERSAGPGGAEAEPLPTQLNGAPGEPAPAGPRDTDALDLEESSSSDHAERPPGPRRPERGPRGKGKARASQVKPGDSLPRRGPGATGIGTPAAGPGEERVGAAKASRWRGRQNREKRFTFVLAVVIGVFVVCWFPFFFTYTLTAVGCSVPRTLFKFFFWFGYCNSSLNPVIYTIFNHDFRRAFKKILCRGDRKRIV

[10] = molecular target: Mu-type opioid receptor (Homo sapiens) (UniProt P35372); assay: Inhibition of mu opioid receptor at 1 uM
[11] = molecular target: Sigma non-opioid intracellular receptor 1 (Homo sapiens) (UniProt Q99720); assay: Inhibition of sigma 1 receptor at 1 uM
[12] = molecular target: Beta-2 adrenergic receptor (Homo sapiens) (UniProt P07550); assay: Inhibition of adrenergic beta2 receptor at 1 uM
[13] = Inhibition of nicotinic bungarotoxin-sensitive acetylcholine receptor at 1 uM
[14] = molecular target: D(2) dopamine receptor (Homo sapiens) (UniProt P14416); assay: Inhibition of dopamine D2S receptor at 1 uM
[15] = Inhibition of central benzodiazepine receptor at 1 uM
[16] = molecular target: Muscarinic acetylcholine receptor M3 (Homo sapiens) (UniProt P20309); assay: Inhibition of muscarinic M3 receptor at 1 uM
[17] = Inhibition of phencyclidine receptor at 1 uM
[18] = Inhibition of nicotinic acetylcholine receptor at 1 uM
[19] = molecular target: Beta-1 adrenergic receptor (Homo sapiens) (UniProt P08588); assay: Inhibition of adrenergic beta-1 receptor at 1 uM
[20] = Inhibition of rolipram binding site at 1 uM
[21] = Inhibition of calcium channel L type dihydropyridine binding site at 1 uM
[22] = molecular target: T5, Muscarinic acetylcholine receptor M2 (Homo sapiens) (UniProt P08172); assay: Inhibition of muscarinic M2 receptor at 1 uM
T5 sequence (whole entry): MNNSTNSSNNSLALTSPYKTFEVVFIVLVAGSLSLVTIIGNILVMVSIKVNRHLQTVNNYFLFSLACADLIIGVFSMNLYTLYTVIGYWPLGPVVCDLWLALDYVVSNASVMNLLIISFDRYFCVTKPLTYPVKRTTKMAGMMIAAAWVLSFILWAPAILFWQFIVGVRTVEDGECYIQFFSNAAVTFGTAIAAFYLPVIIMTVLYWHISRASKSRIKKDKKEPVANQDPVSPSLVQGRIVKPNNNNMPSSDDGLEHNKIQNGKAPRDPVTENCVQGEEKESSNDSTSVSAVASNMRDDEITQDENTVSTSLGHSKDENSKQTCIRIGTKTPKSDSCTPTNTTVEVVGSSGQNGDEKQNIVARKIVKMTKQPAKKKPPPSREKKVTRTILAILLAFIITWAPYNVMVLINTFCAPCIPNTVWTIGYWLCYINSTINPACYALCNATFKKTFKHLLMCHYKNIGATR

[23] = Inhibition of phorbol ester site of PKC at 1 uM
[24] = Inhibition of sodium channel site 2 at 1 uM
[25] = Inhibition of GABAA receptor agonist site at 1 uM; format: functional
[26] = molecular target: Prostaglandin E2 receptor EP4 subtype (Homo sapiens) (UniProt P35408); assay: Inhibition of prostanoid EP4 receptor at 1 uM
[27] = molecular target: Histamine H1 receptor (Homo sapiens) (UniProt P35367); assay: Inhibition of histamine H1 receptor at 1 uM
[28] = molecular target: D(1A) dopamine receptor (Homo sapiens) (UniProt P21728); assay: Inhibition of dopamine D1 receptor at 1 uM
[29] = molecular target: T6, Adenosine receptor A1 (Homo sapiens) (UniProt P30542); assay: Inhibition of adenosine A1 receptor at 1 uM
T6 sequence (whole entry): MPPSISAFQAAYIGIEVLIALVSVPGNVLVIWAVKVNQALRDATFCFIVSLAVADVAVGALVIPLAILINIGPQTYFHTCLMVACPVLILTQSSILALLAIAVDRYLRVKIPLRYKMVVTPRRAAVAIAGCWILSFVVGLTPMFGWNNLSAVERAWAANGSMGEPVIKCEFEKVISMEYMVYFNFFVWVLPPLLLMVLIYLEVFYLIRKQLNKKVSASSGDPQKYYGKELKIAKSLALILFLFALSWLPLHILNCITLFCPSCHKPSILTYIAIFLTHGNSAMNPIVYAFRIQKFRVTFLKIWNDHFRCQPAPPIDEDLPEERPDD

Chain of Adenosine receptor A2a (Homo sapiens) (P29274 whole entry): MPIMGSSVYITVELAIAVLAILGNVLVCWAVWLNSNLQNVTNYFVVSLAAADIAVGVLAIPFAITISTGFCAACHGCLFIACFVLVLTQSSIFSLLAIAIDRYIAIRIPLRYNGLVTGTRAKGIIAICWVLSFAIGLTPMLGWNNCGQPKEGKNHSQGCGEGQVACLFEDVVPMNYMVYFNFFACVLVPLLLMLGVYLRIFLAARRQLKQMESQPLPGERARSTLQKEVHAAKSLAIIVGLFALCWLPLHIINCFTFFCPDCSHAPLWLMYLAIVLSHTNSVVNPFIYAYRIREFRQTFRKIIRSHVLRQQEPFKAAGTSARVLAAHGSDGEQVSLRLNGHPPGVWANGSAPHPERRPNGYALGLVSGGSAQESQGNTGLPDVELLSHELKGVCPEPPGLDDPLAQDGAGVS
Chain of Muscarinic acetylcholine receptor M3 (Homo sapiens) (P20309 whole entry, looked up): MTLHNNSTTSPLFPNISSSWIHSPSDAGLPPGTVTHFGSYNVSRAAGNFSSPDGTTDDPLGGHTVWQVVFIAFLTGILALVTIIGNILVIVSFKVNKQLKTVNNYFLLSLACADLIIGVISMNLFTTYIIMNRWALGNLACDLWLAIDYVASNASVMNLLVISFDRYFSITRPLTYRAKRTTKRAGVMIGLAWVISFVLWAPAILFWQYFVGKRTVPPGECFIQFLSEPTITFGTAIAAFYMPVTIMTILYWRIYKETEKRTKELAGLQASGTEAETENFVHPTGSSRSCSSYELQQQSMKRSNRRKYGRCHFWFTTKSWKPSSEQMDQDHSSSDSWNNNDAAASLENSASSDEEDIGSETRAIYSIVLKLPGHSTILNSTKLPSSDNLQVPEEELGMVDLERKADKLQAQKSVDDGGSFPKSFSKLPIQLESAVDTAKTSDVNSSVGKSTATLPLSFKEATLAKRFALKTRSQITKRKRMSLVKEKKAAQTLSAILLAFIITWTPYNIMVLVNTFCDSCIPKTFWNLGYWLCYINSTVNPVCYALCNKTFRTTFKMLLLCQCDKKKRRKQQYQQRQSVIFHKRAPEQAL
Chain of Sigma non-opioid intracellular receptor 1 (Homo sapiens) (Q99720 whole entry): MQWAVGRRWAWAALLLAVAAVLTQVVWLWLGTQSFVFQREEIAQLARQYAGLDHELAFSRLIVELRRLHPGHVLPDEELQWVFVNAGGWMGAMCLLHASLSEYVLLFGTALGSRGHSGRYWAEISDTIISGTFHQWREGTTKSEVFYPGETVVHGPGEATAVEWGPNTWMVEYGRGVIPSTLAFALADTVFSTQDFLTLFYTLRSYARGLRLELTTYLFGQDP
Chain of D(1A) dopamine receptor (Homo sapiens) (P21728 whole entry): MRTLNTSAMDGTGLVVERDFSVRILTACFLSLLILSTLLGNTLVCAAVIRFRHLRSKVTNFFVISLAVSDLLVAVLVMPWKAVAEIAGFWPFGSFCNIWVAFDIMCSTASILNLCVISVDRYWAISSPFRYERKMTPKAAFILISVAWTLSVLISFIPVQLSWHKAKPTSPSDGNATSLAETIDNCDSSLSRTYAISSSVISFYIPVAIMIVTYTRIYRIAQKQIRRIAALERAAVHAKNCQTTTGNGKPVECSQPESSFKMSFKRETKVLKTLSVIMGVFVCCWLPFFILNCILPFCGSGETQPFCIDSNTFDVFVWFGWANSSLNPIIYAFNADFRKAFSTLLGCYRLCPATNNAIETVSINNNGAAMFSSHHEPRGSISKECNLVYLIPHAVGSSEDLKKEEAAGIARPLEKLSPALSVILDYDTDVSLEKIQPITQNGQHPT
Chain of Prostaglandin E2 receptor EP4 subtype (Homo sapiens) (P35408 whole entry): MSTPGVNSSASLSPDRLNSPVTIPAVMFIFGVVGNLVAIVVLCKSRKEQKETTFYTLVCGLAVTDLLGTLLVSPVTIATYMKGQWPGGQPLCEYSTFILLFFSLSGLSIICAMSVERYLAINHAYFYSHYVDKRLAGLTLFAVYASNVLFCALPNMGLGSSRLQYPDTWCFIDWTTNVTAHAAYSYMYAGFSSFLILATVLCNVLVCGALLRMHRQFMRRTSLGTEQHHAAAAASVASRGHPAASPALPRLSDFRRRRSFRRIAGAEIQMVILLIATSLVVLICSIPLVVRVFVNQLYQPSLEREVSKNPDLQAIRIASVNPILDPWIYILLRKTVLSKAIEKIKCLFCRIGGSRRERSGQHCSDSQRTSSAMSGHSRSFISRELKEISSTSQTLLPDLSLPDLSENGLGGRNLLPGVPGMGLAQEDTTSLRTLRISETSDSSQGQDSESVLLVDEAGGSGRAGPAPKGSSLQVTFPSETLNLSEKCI
Chain of Sodium-dependent noradrenaline transporter (Homo sapiens) (P23975 whole entry): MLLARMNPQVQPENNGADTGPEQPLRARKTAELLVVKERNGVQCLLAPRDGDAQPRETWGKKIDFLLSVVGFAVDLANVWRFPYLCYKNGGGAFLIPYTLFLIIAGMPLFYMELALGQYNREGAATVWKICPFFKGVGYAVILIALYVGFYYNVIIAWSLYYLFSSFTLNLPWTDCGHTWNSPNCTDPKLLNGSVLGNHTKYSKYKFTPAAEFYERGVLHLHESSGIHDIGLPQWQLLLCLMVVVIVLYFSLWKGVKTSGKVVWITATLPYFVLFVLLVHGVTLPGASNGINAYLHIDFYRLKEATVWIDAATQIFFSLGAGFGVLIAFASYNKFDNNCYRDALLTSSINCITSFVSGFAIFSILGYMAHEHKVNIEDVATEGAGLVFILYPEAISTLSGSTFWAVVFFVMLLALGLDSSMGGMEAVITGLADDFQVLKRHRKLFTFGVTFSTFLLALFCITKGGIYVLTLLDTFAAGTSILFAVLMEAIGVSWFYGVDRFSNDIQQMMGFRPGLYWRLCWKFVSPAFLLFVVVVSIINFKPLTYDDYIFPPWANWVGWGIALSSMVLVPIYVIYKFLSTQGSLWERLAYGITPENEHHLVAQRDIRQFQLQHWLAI
Chain of D(2) dopamine receptor (Homo sapiens) (P14416 whole entry): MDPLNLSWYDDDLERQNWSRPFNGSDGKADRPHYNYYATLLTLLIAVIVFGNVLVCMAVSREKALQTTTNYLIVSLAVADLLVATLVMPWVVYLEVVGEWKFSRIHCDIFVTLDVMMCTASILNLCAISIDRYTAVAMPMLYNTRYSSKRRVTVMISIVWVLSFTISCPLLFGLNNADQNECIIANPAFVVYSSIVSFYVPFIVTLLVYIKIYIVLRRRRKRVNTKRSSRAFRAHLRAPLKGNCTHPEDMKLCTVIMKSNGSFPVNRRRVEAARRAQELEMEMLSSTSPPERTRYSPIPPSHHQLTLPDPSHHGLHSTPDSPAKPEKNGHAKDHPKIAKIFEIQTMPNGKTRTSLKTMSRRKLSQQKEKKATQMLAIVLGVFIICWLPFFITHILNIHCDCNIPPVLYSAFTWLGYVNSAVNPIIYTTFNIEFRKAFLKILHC
Chain of Beta-1 adrenergic receptor (Homo sapiens) (P08588 whole entry, looked up): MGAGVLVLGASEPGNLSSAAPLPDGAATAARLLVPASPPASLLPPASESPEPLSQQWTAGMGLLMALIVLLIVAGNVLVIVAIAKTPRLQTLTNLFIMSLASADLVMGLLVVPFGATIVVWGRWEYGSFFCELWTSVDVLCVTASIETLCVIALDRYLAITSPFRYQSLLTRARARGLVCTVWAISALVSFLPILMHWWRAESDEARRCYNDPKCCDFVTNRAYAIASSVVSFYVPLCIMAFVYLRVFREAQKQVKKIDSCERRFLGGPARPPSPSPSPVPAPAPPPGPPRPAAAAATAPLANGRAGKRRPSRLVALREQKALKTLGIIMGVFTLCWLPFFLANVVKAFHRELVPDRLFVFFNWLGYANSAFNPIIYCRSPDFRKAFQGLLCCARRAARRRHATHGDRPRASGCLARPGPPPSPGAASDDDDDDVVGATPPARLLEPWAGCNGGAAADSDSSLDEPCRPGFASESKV
Chain of Beta-2 adrenergic receptor (Homo sapiens) (P07550 whole entry, looked up): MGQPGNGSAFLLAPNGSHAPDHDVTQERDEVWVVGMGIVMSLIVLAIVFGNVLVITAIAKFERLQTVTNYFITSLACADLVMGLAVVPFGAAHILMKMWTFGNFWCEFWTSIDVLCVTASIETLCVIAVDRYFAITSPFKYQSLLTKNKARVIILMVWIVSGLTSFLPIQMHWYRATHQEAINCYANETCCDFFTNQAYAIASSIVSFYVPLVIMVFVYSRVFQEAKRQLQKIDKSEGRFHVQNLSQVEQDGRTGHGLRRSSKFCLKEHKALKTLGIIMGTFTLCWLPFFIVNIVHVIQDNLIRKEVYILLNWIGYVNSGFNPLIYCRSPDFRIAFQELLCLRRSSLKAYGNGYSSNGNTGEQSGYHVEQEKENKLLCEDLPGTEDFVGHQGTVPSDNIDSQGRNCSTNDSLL
Chain of Histamine H1 receptor (Homo sapiens) (P35367 whole entry): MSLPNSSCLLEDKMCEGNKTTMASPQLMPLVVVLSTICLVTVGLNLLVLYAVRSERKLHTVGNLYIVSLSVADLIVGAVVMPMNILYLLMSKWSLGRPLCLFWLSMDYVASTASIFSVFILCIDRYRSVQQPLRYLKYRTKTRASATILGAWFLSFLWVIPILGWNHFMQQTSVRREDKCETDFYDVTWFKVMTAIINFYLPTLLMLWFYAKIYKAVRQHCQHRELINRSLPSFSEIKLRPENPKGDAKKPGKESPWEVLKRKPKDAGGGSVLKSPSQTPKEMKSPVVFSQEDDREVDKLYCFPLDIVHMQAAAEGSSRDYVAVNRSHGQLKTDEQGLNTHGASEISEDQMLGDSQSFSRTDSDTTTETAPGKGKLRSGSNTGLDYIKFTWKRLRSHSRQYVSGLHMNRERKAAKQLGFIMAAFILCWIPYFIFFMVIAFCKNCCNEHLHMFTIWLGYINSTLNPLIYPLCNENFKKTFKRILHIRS

SMILES: OC(c1ccc(Cl)c(Cl)c1)(c1ccc2c(cnn2-c2ccc(F)cc2)c1)C(F)(F)F (stereo not given)
- IC50 (Glucocorticoid receptor): 0.178 µM

SMILES: OC(c1ccc(F)cc1)c1ccc2c(cnn2-c2ccc(F)cc2)c1 (stereo not given)
- IC50 (Glucocorticoid receptor): 10 µM

SMILES: Cc1ccccc1C(O)(c1ccc2c(cnn2-c2ccc(F)cc2)c1)C(F)(F)F (stereo not given)
- IC50 (Glucocorticoid receptor): 0.282 µM

SMILES: CC(O)(c1ccc(F)cc1)c1ccc2c(cnn2-c2ccc(F)cc2)c1 (stereo not given)
- IC50 (Glucocorticoid receptor): 2.11 µM

SMILES: Cc1ccc(C(O)(c2ccc3c(cnn3-c3ccc(F)cc3)c2)C(F)(F)F)cc1 (stereo not given)
- IC50 (Glucocorticoid receptor): 2.09 µM

SMILES: OC(c1ccc(F)cc1)(c1ccc2c(cnn2-c2ccc(F)cc2)c1)C(F)(F)F (single isomer, unassigned; (+)) [2,2,2-TRIFLUORO-1-(4-FLUOROPHENYL)-1-(1-(4-FLUOROPHENYL)-1H-INDAZOL-5-YL)ETHANOL (DIASTEREOMERIC MIX)]
- IC50 (Glucocorticoid receptor): 3 µM

SMILES: OC(c1ccc(F)c(Cl)c1)(c1ccc2c(cnn2-c2ccc(F)cc2)c1)C(F)(F)F (single isomer, unassigned; (-))
- inhibition [1]: < 50%
- inhibition [2]: < 50%
- inhibition [3]: < 50%
- inhibition [4]: < 50%
- inhibition [5]: < 50%
- inhibition [6]: < 50%
- inhibition [7]: < 50%
- inhibition [8]: < 50%
- inhibition [9]: < 50%
- inhibition [10]: < 50%
- inhibition [11]: < 50%
- inhibition [12]: < 50%
- inhibition [13]: < 50%
- inhibition [14]: < 50%
- inhibition [15]: < 50%
- inhibition [16]: < 50%
- inhibition [17]: < 50%
- inhibition [18]: < 50%
- inhibition [19]: < 50%
- inhibition [20]: < 50%
- inhibition [21]: < 50%
- inhibition [22]: < 50%
- inhibition [23]: < 50%
- inhibition [24]: < 50%
- inhibition [25]: < 50%
- inhibition [26]: < 50%
- inhibition [27]: < 50%
- inhibition [28]: < 50%
- inhibition [29]: < 50%

SMILES: OC(c1ccc(F)c(Cl)c1)(c1ccc2c(cnn2-c2ccc(F)cc2)c1)C(F)(F)F (stereo in doubt; 18) [1-(3-CHLORO-4-FLUOROPHENYL)-2,2,2-TRIFLUORO-1-(1-(4-FLUOROPHENYL)-1H-INDAZOL-5-YL)ETHANOL (ENANTIOMERIC MIX)]
- IC50 (Glucocorticoid receptor): 0.117 µM

SMILES: OC(c1ccc2c(cnn2-c2ccc(F)cc2)c1)(c1cccc(Cl)c1Cl)C(F)(F)F (stereo in doubt; 23) [1-(2,3-DICHLOROPHENYL)-2,2,2-TRIFLUORO-1-(1-(4-FLUOROPHENYL)-1H-INDAZOL-5-YL)ETHANOL (ENANTIOMERIC MIX)]
- IC50 (Glucocorticoid receptor): 0.087 µM

More lines, now with the values ahead:

- IC50 (Glucocorticoid receptor): 0.054 µM
SMILES: OC(c1ccc2c(cnn2-c2ccc(F)cc2)c1)(c1ccccc1F)C(F)(F)F (stereo not given)

- IC50 (Glucocorticoid receptor): 0.035 µM
SMILES: OC(c1ccc2c(cnn2-c2ccc(F)cc2)c1)(c1ccccc1Cl)C(F)(F)F (stereo not given)

- IC50 (Glucocorticoid receptor): 0.072 µM
SMILES: OC(c1cccc(Cl)c1)(c1ccc2c(cnn2-c2ccc(F)cc2)c1)C(F)(F)F (stereo not given)

- IC50 (Glucocorticoid receptor): 0.099 µM
SMILES: N#Cc1cccc(C(O)(c2ccc3c(cnn3-c3ccc(F)cc3)c2)C(F)(F)F)c1 (stereo not given)

- IC50 (Glucocorticoid receptor): 0.03 µM
SMILES: N#Cc1cc(C(O)(c2ccc3c(cnn3-c3ccc(F)cc3)c2)C(F)(F)F)ccc1F (stereo not given)

- IC50 (Glucocorticoid receptor): 0.052 µM
SMILES: Cc1cccc(C(O)(c2ccc3c(cnn3-c3ccc(F)cc3)c2)C(F)(F)F)c1 (stereo not given)

- IC50 (Glucocorticoid receptor): 0.086 µM
SMILES: OC(c1ccc(F)cc1)(c1ccc2c(cnn2-c2ccc(F)cc2)c1)C(F)(F)F (single isomer, unassigned; (-)) [2,2,2-TRIFLUORO-1-(4-FLUOROPHENYL)-1-(1-(4-FLUOROPHENYL)-1H-INDAZOL-5-YL)ETHANOL (DIASTEREOMERIC MIX)]

- IC50 (Glucocorticoid receptor): 0.161 µM
SMILES: OC(c1ccc(F)cc1)(c1ccc2c(cnn2-c2ccc(F)cc2)c1)C(F)(F)F (stereo in doubt; 12) [2,2,2-TRIFLUORO-1-(4-FLUOROPHENYL)-1-(1-(4-FLUOROPHENYL)-1H-INDAZOL-5-YL)ETHANOL (DIASTEREOMERIC MIX)]
